What was measured:
mTOR signaling pathway = assay: Immunoblotting of mTOR pathway protein phosphorylation in ovaries; type: cell-based, mice; conditions: day 10 mouse ovaries, 3 h, 10 μM, FIG. 1A
Description: Ovaries from day 10 mice were incubated for 3 h with 10 μM of MHY1485 before immunoblotting analyses. […] Activated mTORC1 complex phosphorylates Thr389 in ribosomal S6 kinase (S6K), thereby activating it to subsequently phosphorylate ribosomal protein S6 (rpS6) and promote ribosome biogenesis. We further monitored S6K1 and rpS6 phosphorylation in ovarian tissues.
Ovaries from mice at day 10 of age were treated with MHY1485 (Millipore, Bedford, Mass.) for 3 h and proteins were extracted using M-PER Mammalian Protein Extraction Reagent (Thermo, Rockford, Ill.) containing a protease inhibitor cocktail (Thermo). Protein concentrations in supernatants were determined by the bicinchoninic acid method (Pierce, Rockford, Ill., USA). Equal amounts of protein lysates were loaded on 4-12% NuPAGE Bis-Tris gels (Invitrogen, Carlsbad, Calif.) in MOPS buffer and transferred to […] pore nitrocellulose membranes (LI-COR, Lincoln, Nebr., USA). First antibodies were from Cell Signaling (Beverly, Mass.) and rabbit secondary antibodies from LI-COR. Images were generated using a LI-COR Odyssey infrared imager.

oocytes = assay: In vitro fertilization and embryo transfer of oocytes from pretreated grafts; type: in vivo, mice
Description: (§1) Using this model, we further treated the hosts with eCG for 2 days to promote the growth of preovulatory follicles, followed by an injection of hCG to promote oocyte maturation. At 12 h after hCG injection, mature oocytes were punctured from preovulatory follicles for in vitro fertilization.
Ovaries from B6D2F1 mice at 10 days of age were treated with 10 μM MHY1485 for 2 days, followed by transplantation into kidney capsules of hosts for 5 days. At day 5 after transplantation, animals were treated with 10 IU equine chorionic gonadotropin (eCG) for 48 h, followed by an injection of 10 IU human chorionic gonadotropin (hCG). Twelve hour later, grafts were collected and oocytes were retrieved in the M2 medium (Cytospring, Mountain View, Calif.). As controls, B6D2F1 mice at day 25 of age were treated with 5 IU eCG for 48 h, followed by 5 IU hCG before oocyte retrieval. For in vitro fertilization, sperm from B6D2F1 male mice were collected into human tubal fluid medium (Cytospring) and pre-incubated for 1 h at 37 C. Oocytes were then fertilized with sperm (2-3×10^5/ml) for 6 h, and inseminated oocytes were transferred into KSOM medium (Cytospring) for development into blastocysts. For embryo transfer, two-cell embryos were transferred into oviducts of pseudopregnant, 8-week-old CD1 nice pre-mated with vasectomized males of the same strain.

Ovaries from day 10 mice [1] = assay: Ovarian explant culture and follicle counting; type: cell-based; conditions: explant culture 4 days
Description: We treated ovaries from day 10 mice with increasing doses of MHY1485 using an explant culture model.
Ovaries from day 10 mice were placed on culture plate inserts (Millipore) and cultured in 400 μl of DMEM/F12 containing 0.1% BSA, 0.1% Albumax II, insulin-transferrin-selenium, 0.05 mg/ml L-ascorbic acid and penicillin-streptomycin under a membrane insert to cover ovaries with a thin layer of medium. Ovaries were treated with 1-10 μM of MHY1485 and cultured for 4 days with medium change after 2 days of culture. At the end of culture, ovaries were fixed with formalin before weighing. Some ovaries were paraffin-embedded and cut into continuous sections. Sections were stained with hematoxylin and eosin for follicle counting, and only follicles with clearly stained oocyte nucleus were counted to avoid recounting of the same follicle.

Ovaries from day 10 mice [2] = assay: Ovarian tissue grafting (in vitro treatment then allo-transplantation under kidney capsules); type: in vivo; conditions: 2 days in vitro treatment
Description: as §1
At the end of transplantation, grafts were collected for weight determination and histological analysis. For some animals, ovaries from day 10 mice were treated with IVA drugs (PTEN inhibitor: (bpv(hopic) at 30 μM for the first day and an activator for phosphoinositol-3-kinase 740YP at 150 μg/mL for two days) before grafting.

PTEN = PTEN (Homo sapiens, UniProt P60484); conditions: cited from earlier work
PTP = conditions: cited from earlier work
[3] = grafts 5 days with FSH, FIG. 2C

Sequence of PTEN (P60484 whole entry): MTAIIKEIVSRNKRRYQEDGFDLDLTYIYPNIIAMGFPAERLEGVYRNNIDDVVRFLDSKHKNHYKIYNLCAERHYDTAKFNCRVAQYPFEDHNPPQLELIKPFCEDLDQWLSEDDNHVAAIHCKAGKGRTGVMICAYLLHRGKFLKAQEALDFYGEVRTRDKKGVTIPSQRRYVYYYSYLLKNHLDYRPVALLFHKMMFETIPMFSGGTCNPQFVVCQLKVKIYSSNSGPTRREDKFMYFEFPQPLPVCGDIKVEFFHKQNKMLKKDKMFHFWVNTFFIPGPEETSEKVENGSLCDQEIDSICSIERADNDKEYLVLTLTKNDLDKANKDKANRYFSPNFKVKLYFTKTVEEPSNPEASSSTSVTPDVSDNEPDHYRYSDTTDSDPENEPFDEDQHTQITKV

O=[N+]([O-])c1ccc(Nc2nc(N3CCOCC3)nc(N3CCOCC3)n2)cc1 [MHY1485, 4,6-Di-4-morpholinyl-N-(4-nitrophenyl)-1,3,5-triazin-2-amine]
phospho-mTOR levels (mTOR signaling pathway): increased | phosphorylation of S6K1 (mTOR signaling pathway): increased | phosphorylation of rpS6 (mTOR signaling pathway): increased | development of oocytes after in vitro fertilization (oocytes; 10 μM 2 days, graft 5 days, eCG then hCG, oocytes fertilized, FIG. 3A): could develop into blastocysts | outcome of 2-cell embryo transfer into pseudopregnant surrogate mothers (oocytes; FIG. 3C): healthy pups were delivered | early embryonic development vs oocytes from day 25 mice (controls) (oocytes; percentage of oocytes developing into each embryonic stage, FIG. 3B): comparable early embryonic development | ovarian weights (Ovaries from day 10 mice [1]; 1-10 μM, FIG. 1B): dose-dependent increases | follicle growth (histology, follicle counting) (Ovaries from day 10 mice [1]; FIG. 1C, 1D): enhancement of follicle growth from early secondary to the late secondary stage | graft weights (Ovaries from day 10 mice [2]; grafted into adult hosts, daily FSH 5 days, FIG. 2A): increased | antral/preovulatory follicles (Ovaries from day 10 mice [2]; grafts 5 days with FSH, FIG. 2B, 2C): increases in the development of antral/preovulatory follicles | early secondary follicles (Ovaries from day 10 mice [2]; [3]): decrease of early secondary follicles | primary follicles (Ovaries from day 10 mice [2]; [3]): increase of primary follicles

O=C([O-])c1ccccn1.OO.OO.[K+].[K+].[OH-].[V] [dipotassium bisperoxo(picolinato)oxovanadate (V)]
IC50 (PTEN): 0.031 µM

OO.OO.[K+].[OH-].[V].c1cnc2c(c1)ccc1cccnc12 [potassium bisperoxo (1,10-phenanthroline)oxovanadate (V)]
IC50 (PTEN): 0.038 µM

dipotassium bisperoxo(5-hydroxypyridine-2-carboxyl)oxovanadate (V)
IC50 (PTEN): 0.014 µM

monoperoxo(picolinato)oxovanadate(V)
IC50 (PTP): 18 µM

potassium bisperoxo(bipyridine)oxovanadate (V)
IC50 (PTEN): 0.018 µM
